Results published in publication PMC10005332, “It Takes Two to Tango, Part II: Synthesis of A-Ring Functionalised Quinones Containing Two Redox-Active Centres with Antitumour Activities” (Molecules, 2023).
Like-named read-outs stand apart in the source and are kept apart here.

How the values were obtained:
[1] = system: HCT-116 (human colorectal carcinoma); assay: MTT cytotoxicity assay, HCT-116; format: cell-based; conditions: for IC50: Homo sapiens, HCT-116, 72 h, MTT, 72 h exposure, three independent experiments, read-out: Cytotoxic activity IC50 (95% CI) HCT-116; for Selectivity index HCT-116: ratio of cytotoxicity L929 / HCT-116
Experimental: (§1) In this study, the IC50 was obtained in micromolar concentrations, using the colourimetric MTT (3-(4,5-dimethylthiazol-2-yl)-2,5-diphenyl tetrazolium bromide)) assay, and doxorubicin was used as the positive control. […] The activity against the non-tumoural murine fibroblast cell line L929 was also evaluated in order to study the cytotoxicity behaviour of each compound and to understand their respective relative selectivity. The selectivity index was obtained using the ratio of measured cytotoxicity between the L929 cell line and each of the cancer cell lines, and the results are presented in Table 2.
(§2) The in vitro cytotoxicity activity of the compounds was evaluated by the colorimetric MTT (3-(4,5-dimethylthiazol-2-yl)-2,5-diphenyl tetrazolium bromide)) assay using the following tumor cell lines: HCT-116 (colon carcinoma), PC3 (prostate), SNB-19 (glioblastoma), K-562 (myelogenous leukaemia), HL-60 (human promyelocytic leukaemia), B16 (murine melanoma), A549 (human lung carcinoma), KG1 (human acute myeloid leukaemia), and RAJI (human Burkitt’s lymphoma), which were provided by the National Cancer Institute (Bethesda, MD, USA). The L929 cell line (mouse fibroblast L cells NCTC clone 929) employed in this study as a control cell line was obtained from the American Type Culture Collection (Manassas, VA, USA). The cell lines (Table S4) were maintained in flasks containing RPMI 1640 or DMEM medium supplemented with 10% bovive fetal sérum, 100 U/mL penicillin, and 100 μg/mL streptomycin at 37 °C and in 5% CO2 atmosphere. The compounds tested were dissolved in DMSO. Doxorubicin served as the positive control. Cell treatments were performed with three replicates and the cells were mycoplasma free. After 72 h incubation, 100 μL of MTT solution (0.5 mg/mL) was added to each well, and the cells were incubated for 3 h. The supernatant was removed and 100 μL of DMSO was added and the absorbance at 595 nm was measured using Victor Nivo Multimode plate reader (PerkinElmer, Waltham, MA, USA). The absorbances obtained were used to calculate the IC50 values by nonlinear regression employing appropriate statistical software.
(§3) The in vitro cytotoxicity activity of compounds was evaluated by the colorimetric MTT (3-(4,5-dimethylthiazol-2-yl)-2,5-diphenyl tetrazolium bromide)) assay using tumor cell lines: HCT-116 (colon carcinoma), PC3 (prostate), SNB-19 (glioblastoma), K-562 (myelogenous leukaemia), HL-60 (human promyelocytic leukaemia), B16 (murine melanoma), A549 (human lung carcinoma), KG1 (human acute myeloid leukaemia) and RAJI (human Burkitt's lymphoma), which were provided by the National Cancer Institute (Bethesda, MD, USA). The L929 cell line (mouse fibroblast L cells NCTC clone 929) employed in this study as a control cell line was obtained from the American Type Culture […]
(§4) Collection (Manassas, VA, USA). Cell lines (Table 01) were maintained in flasks containing RPMI 1640 or DMEM medium supplemented with 10% bovive fetal sérum, 100 U/mL penicillin, and 100 μg/mL streptomycin at 37 °C and 5% CO2 atmosphere.
(§5) Compounds tested were dissolved in DMSO. Doxorubicin served as positive control. Cell treatments were performed with three replicates and cells were mycoplasma-free. After 72 h incubation, 100 μL of MTT solution (0.5 mg/mL) was added to each well, and cells were incubated for 3 h. The supernatant was removed and 100 μL of DMSO was added and the absorbance at 595 nm was measured using Victor Nivo Multimode plate reader

[2] = system: PC3 (human prostate adenocarcinoma); assay: MTT cytotoxicity assay, PC3; format: cell-based; conditions: for IC50: Homo sapiens; for Selectivity index PC3: ratio of cytotoxicity L929 / PC3
Experimental: as §1, §2, §3, §4, §5

[3] = system: SNB-19 (human astrocytoma); assay: MTT cytotoxicity assay, SNB-19; format: cell-based; conditions: for IC50: Homo sapiens, SNB-19, MTT, 72 h exposure, three independent experiments, read-out: Cytotoxic activity IC50 (95% CI) SNB-19; for Selectivity index SNB-19: ratio of cytotoxicity L929 / SNB-19
Experimental: as §1, §2, §3, §4, §5

[4] = system: K-562 (human chronic myeloid leukaemia); assay: MTT cytotoxicity assay, K-562; format: cell-based; conditions: for IC50: Homo sapiens, K562, MTT, 72 h exposure, three independent experiments, read-out: Cytotoxic activity IC50 (95% CI) K-562; for Selectivity index K-562: ratio of cytotoxicity L929 / K-562
Experimental: as §1, §2, §3, §4, §5

[5] = system: HL60 (human pro-myelocytic leukaemia); assay: MTT cytotoxicity assay, HL60; format: cell-based; conditions: for IC50: MTT, 72 h exposure, three independent experiments, read-out: Cytotoxic activity IC50 (95% CI) HL60; for Selectivity index HL60: ratio of cytotoxicity L929 / HL60
Experimental: as §1, §2, §3, §4, §5

B16 (murine melanoma) = assay: MTT cytotoxicity assay, B16; format: cell-based; conditions: for IC50: Mus musculus, MTT, 72 h exposure, three independent experiments, read-out: Cytotoxic activity IC50 (95% CI) B16; for Selectivity index B16: ratio of cytotoxicity L929 / B16
Experimental: as §1, §2, §3, §4, §5

[6] = system: A549 (human lung carcinoma); assay: MTT cytotoxicity assay, A549; format: cell-based; conditions: for IC50: Homo sapiens, A549, MTT, 72 h exposure, three independent experiments, read-out: Cytotoxic activity IC50 (95% CI) A549; for Selectivity index A549: ratio of cytotoxicity L929 / A549
Experimental: as §1, §2, §3, §4, §5

[7] = system: KG1 (human acute myeloid leukaemia); assay: MTT cytotoxicity assay, KG1; format: cell-based; conditions: for IC50: Homo sapiens, MTT, 72 h exposure, three independent experiments, read-out: Cytotoxic activity IC50 (95% CI) KG1; for Selectivity index KG1: ratio of cytotoxicity L929 / KG1
Experimental: as §1, §2, §3, §4, §5

[8] = system: RAJI (human Burkitt’s lymphoma); assay: MTT cytotoxicity assay, RAJI; format: cell-based; conditions: for IC50: Homo sapiens, Raji, 72 h, MTT, 72 h exposure, three independent experiments, read-out: Cytotoxic activity IC50 (95% CI) RAJI; for Selectivity index RAJI: ratio of cytotoxicity L929 / RAJI
Experimental: as §1, §2, §3, §4, §5

[9] = MTT cytotoxicity assay, L929 control line; format: cell-based, mouse; conditions: mouse, L929 fibroblast cells (non-tumoral control line), 72 h exposure, read-out: Cytotoxic activity IC50 (95% CI) L929
Experimental: as §1, §2, §3, §4, §5

[10] = MTT, 72 h exposure, three independent experiments, read-out: Cytotoxic activity IC50 (95% CI) PC3

Structure (SMILES)	IC50 [1] [µM]	Selectivity index HCT-116 [1]	IC50 [2, 10] [µM]	Selectivity index PC3 [2]	IC50 [3] [µM]	Selectivity index SNB-19 [3]	IC50 [4] [µM]	Selectivity index K-562 [4]	IC50 ([5]; Homo sapiens, HL-60, 72 h) [µM]	Selectivity index HL60 [5]	IC50 (B16 (murine melanoma)) [µM]	Selectivity index B16 (B16 (murine melanoma))	IC50 [6] [µM]	Selectivity index A549 [6]	IC50 [7] [µM]	Selectivity index KG1 [7]	IC50 [8] [µM]	Selectivity index RAJI [8]	IC50 at 72 h [9] [µM]	further results
CC1(C)OC2=C(C(=O)C(=O)c3ccccc32)C1n1cc(CNC2=CC(=O)c3cc4ccccc4cc3C2=O)nn1 (stereo not shown) [Compound 19e, 3-(4-(((1,4-dioxo-1,4-dihydroanthracen-2-yl)amino)methyl)-1H-1,2,3-triazol-1-yl)-2,2-dimethyl-2,3-dihydronaphtho[1,2-b]furan-4,5-dione]	2.63	1.8	3.48	1.4	3.52	1.4	8.13	0.6	0.86	5.6	3.97	1.2	6.14	0.8	4.77	1.0	1.69	2.9	4.83	–
C#CCNC1=CC(=O)c2cccc(OC)c2C1=O [Compound 18c, 8-methoxy-2-(prop-2-yn-1-ylamino)naphthalene-1,4-dione]	> 100	–	> 100	–	> 100	–	> 100	–	> 100	–	43.8	2.3	> 100	–	> 100	–	39.3	2.5	> 100	–
[N-]=[N+]=NCC1CC2=C(O1)c1ccccc1C(=O)C2=O (stereo not shown) [Compound 7, 2-(azidomethyl)-2,3-dihydronaphtho[1,2-b]furan-4,5-dione]	1.8	1.9	2.25	1.5	1.43	2.4	0.98	3.5	0.59	5.9	1.99	1.7	2.63	1.3	3.67	0.9	0.53	6.5	3.46	IC50 ([2]; 72 h, read-out: Bioactivity class according to IC50, PC3): 2 to 10 µM
O=C1C(=O)c2ccccc2C2=C1CC(Cn1cc(CNC3=CC(=O)c4c(O)cccc4C3=O)nn1)O2 (stereo not shown) [Compound 20b, 2-((4-(((5-hydroxy-1,4-dioxo-1,4-dihydronaphthalen-2-yl)amino)methyl)-1H-1,2,3-triazol-1-yl)methyl)-2,3-dihydronaphtho[1,2-b]furan-4,5-dione]	7.22	3.8	10.2	2.7	9.47	2.9	12.8	2.2	5	5.5	4.52	6.1	18.9	1.5	23.3	1.2	2.49	11.1	27.6	–
CC1(C)OC2=C(C(=O)C(=O)c3ccccc32)C1n1cc(CNC2=CC(=O)c3cccc(OCc4ccccc4)c3C2=O)nn1 (stereo not shown) [Compound 19d, 3-(4-(((8-benzyloxy-1,4-dioxo-1,4-dihydronaphthalen-2-yl)amino)methyl)-1H-1,2,3-triazol-1-yl)-2,2-dimethyl-2,3-dihydronaphtho[1,2-b]furan-4,5-dione]	0.53	4.3	1.23	1.9	0.76	3.0	1.04	2.2	0.3	6.7	0.93	2.5	1.11	2.1	2.94	0.8	1.26	1.8	2.29	IC50 [5]: 0.34 µM
CC1(C)OC2=C(CC1Cn1cc(CNC3=CC(=O)c4c(I)cccc4C3=O)nn1)C(=O)C(=O)c1ccccc12 (stereo not shown) [Compound 21a, 3-((4-(((5-iodo-1,4-dioxo-1,4-dihydronaphthalen-2-yl)amino)methyl)-1H-1,2,3-triazol-1-yl)methyl)-2,2-dimethyl-3,4-dihydro-2H-benzo[h]chromene-5,6-dione]	2.69	0.7	6.19	0.3	2.93	0.6	5.03	0.4	1.02	1.8	0.96	1.9	2.76	0.7	4.2	0.4	5.71	0.3	1.86	–
C#CCNC1=CC(=O)c2c(I)cccc2C1=O [Compound 18a, 5-iodo-2-(prop-2-yn-1-ylamino)naphthalene-1,4-dione]	> 100	–	> 100	–	> 100	–	> 100	–	38.3	2.6	48.5	2.1	> 100	–	> 100	–	> 100	–	> 100	–
